This is an account of results in article PMC9228468, “Relevance of Therapeutic Drug Monitoring of Tyrosine Kinase Inhibitors in Routine Clinical Practice: A Pilot Study” (Pharmaceutics, 2022).

For data set [1] the following is noted: cited from earlier work.
Data set [2] is described as follows: Therapeutic drug monitoring: plasma levels by HPLC-UV, dose-normalized plasma concentrations. The class given is in vivo, human. As to the method: (§1) Monitoring was carried out in all cases after at least fifteen days from the start of treatment, when the plasma levels of the drug were considered at steady state. Blood samples were extracted just before ingestion of the tablet/s and at different times after ingestion. The drug was administered in the fasted state and patients were told they could eat food after the second blood sample was drawn. Sampling times, which are defined for each drug in Table 1, were selected based on the optimal sampling theory and pharmacokinetic models previously published in the scientific literature. […] The total blood volume extracted was between 4 and 5 mL for each sample. All samples were centrifuged after extraction at 3500 r.p.m. for 10 min at room temperature and the plasma obtained was frozen at −80 °C until bioanalysis.
Bioanalysis was carried out using high-performance liquid chromatography (HPLC) coupled with ultraviolet (UV) detection.
As the stationary phase, an Ultrabase® C18 chromatographic column, 4.6 mm in diameter by 150 mm in length, made of stainless steel and filled with a C18 reversed-phase siliceous substrate with a particle size of 5 µm, was used. A mixture of 40% of 0.02 M ammonium acetate, pH = 7, and 60% acetonitrile: methanol at a ratio of 70:30 (v/v) was used as the mobile phase. The linearity of the technique included a concentration range of 0.05–7.5 µg/mL. The limit of quantification was 0.5 µg/mL. Solid–liquid extraction was used and the analysis time was 9 min.
The stationary phase used was an Ultrabase® C18 chromatographic column, 4.6 mm in diameter by 150 mm in length, made of stainless steel and filled with a C18 reversed-phase siliceous substrate with a particle size of 5 µm. The mobile phase used was a 40% mixture of 0.02 M ammonium acetate, pH = 7, and 60% acetonitrile: methanol at a ratio of 70:30 (v/v). The linearity of the technique included a concentration range of 0.05–5 µg/mL. The limit of quantification was 0.5 µg/mL. Solid–liquid extraction was used and the analysis time was 10 min.
The stationary phase used was a Kromasil® C18 chromatographic column, 4.6 mm in diameter by 150 mm in length, made of stainless steel and filled with a C18 reversed-phase siliceous substrate with a particle size of 5 µm. The mobile phase used was a mixture of acetonitrile and 0.02 M ammonium acetate, pH = 3.5, at a ratio of 53:47 (v/v). The linearity of the technique included a concentration range of 0.02–10 µg/mL. The limit of quantification was 0.2 µg/mL. Liquid–liquid extraction was used and the analysis time was 12 min [51].
The stationary phase used was a Kromasil® C18 chromatographic column, 4.6 mm in diameter by 150 mm in length, made of stainless steel and filled with a C18 reversed-phase siliceous substrate with a particle size of 5 µm. The mobile phase used was a mixture of acetonitrile and 0.02 M ammonium acetate, pH = 3.5, at a ratio of 53:47 (v/v). The linearity of the technique included a concentration range of 0.1–20 µg/mL. The limit of quantification was 0.1 µg/mL. Liquid–liquid extraction was used and the analysis time was 12 min [52].
The program was compiled with the DIGITAL Visual Fortran version 6.6C program. The graphics were made with the S-Plus 6.1 Professional Edition program for Windows (Insightful, Seattle, WA, USA). A one-compartment pharmacokinetic model with first-order absorption and elimination kinetics was selected to describe erlotinib plasma concentrations, as performed previously by other authors. The fixed-effect parameters estimated by the model were V (volume of distribution, L), CL (plasma clearance, L/h) and Ka (absorption constant). The model included plasma ALT concentration and age as covariates in CL, and weight in V.
The model was parameterized in terms of D1 (zero-order absorption duration), V and CL, and included the plasma concentration of α 1-acid glycoprotein as a covariate in CL. […]

The nature of data set [3]: Survival analysis (Kaplan-Meier, PFS and OS). The class given is in vivo, human. The conditions noted are these: real-world cancer patients with TDM. As to the method:
(§2) Patients’ medical records were reviewed with the aim of studying all possible factors related to the patient and the medication that may influence the evolution of the plasma concentrations of TKIs. Sociodemographic and anthropometric, pharmacological treatment, clinical, toxicity and therapeutic drug monitoring data were collected. Treatment response was determined according to the […]. Adverse events were recorded by grade according to the Common Terminology Criteria for Adverse Events version 3.0 (CTCAE v 3.0).
To assess the relationship between treatments protocols and disease progression or mortality, a Kaplan–Meier survival curve was plotted.

Data set [4] can be described thus: Incidence of toxicity (CTCAE grades), first vs last monitored cycle. The class given is in vivo, human. The conditions noted are these: for Toxicity: RI G1: renal insufficiency grade 1 (IR G1 for sorafenib). The method, then: as §2
To compare the variation in categorical variables (rash, diarrhea, fatigue, abdominal pain, hypertension, and mucositis) between the first and the last monitored cycle, the non-parametric chi-square test was performed.

The nature of data set [5]: TDM-guided dose adjustment recommendations per monitored cycle. The class given is in vivo, human. Particulars: for monitored cycles with recommendation to decrease the dose: concentrations above therapeutic range; for monitored cycles with recommendation to increase the prescribed dose: concentrations below target therapeutic range; for monitored cycles with recommendation to suspend/suppress the drug: in vivo. As to the method: Patients included in this study received drugs at doses previously established by their doctors, according to data sheet indications and clinical judgment. In all cases, drug dose was prescribed before the patient enrolled onto this study and was not affected by this study prior to enrollment.
as §1

Data set [6] can be described thus: Groups of patients according to exposure and toxicity. The conditions noted are these: for % patients, Group 3 / % patients, Group 4: Toxicities: Yes; for % patients, Group 2 / % patients, Group 4: Drug concentrations above target level: Yes. The class given is in vivo, human.
Setting [7] is: last monitored cycle, after TDM and dose adjustments.
Where [8] appears, read: last monitored cycle, after TDM and dose adjustment.
Where [9] appears, read: Drug concentrations above target level: No.

For the molecule `Cc1ccc(Nc2nccc(N(C)c3ccc4c(C)n(C)nc4c3)n2)cc1S(N)(=O)=O` [pazopanib], in data set [1], the “AUC when administered with food compared to fasted state” value is listed as “doubled”. Further, the “dose above which plasma AUC does not increase” value in data set [1] (solubility limitations in the digestive tract) is on record as “greater than 800 mg”.

On to `Cc1cn(-c2cc(NC(=O)c3ccc(C)c(Nc4nccc(-c5cccnc5)n4)c3)cc(C(F)(F)F)c2)cn1` [nilotinib], for which the “increase in AUC with high-fat meals” value in data set [1] is “up to 80%”.

On to `Cc1ccc(NC(=O)c2ccc(CN3CCN(C)CC3)cc2)cc1Nc1nccc(-c2cccnc2)n1` [Imatinib, imatinib], for which the “mean interpatient variability in dose-normalized plasma concentrations (CV)” value was 48.91% in data set [2] (first monitored cycle); 48.9% in data set [2] (first monitored cycle, listed as imatinib); 50.84% in data set [2] (setting [7]); 50.8% in data set [2] (last monitored cycle, after TDM and dose adjustments, listed as imatinib).

As for `CNC(=O)c1cc(Oc2ccc(NC(=O)Nc3ccc(Cl)c(C(F)(F)F)c3)cc2)ccn1` [Sorafenib, sorafenib], in data set [3], the “Overall Survival, Median” value was found to be 9 Months and the “Progression-Free Survival, Median” value was found to be 9 Months. Moreover, the “mean interpatient variability in dose-normalized plasma concentrations (CV)” value in data set [2] (first monitored cycle) was 89.7%. For the same molecule, the “mean interpatient variability in dose-normalized plasma concentrations (CV)” value in data set [2] (setting [7]) is 72.5%. For the same molecule, in data set [1], the “dose above which gastrointestinal absorption saturates” value was “greater than 800 mg”; the “variability in exposure between patients, AUC” value is 12–117%; the “variability in exposure between patients, apparent oral Cl” value is recorded as 13–80%. In data set [4] (in vivo), the “Toxicity: Abdominal pain” value is given as 2 (18.2) n. (%), the “Toxicity: Anemia G1” value is listed as 2 (18.2) n. (%), the “Toxicity: Anemia G2” value is 1 (9.1) n. (%) and the “Toxicity: Diarrhea G2” value was 1 (9.1) n. (%). For the same molecule, the “patients who developed toxicity at the start of treatment” value in data set [4] (in vivo) worked out at 63.3%. Further, in data set [4] (setting [8]), the patients with anemia was found to be 50% and the “patients with grade 3 neutropenia” value is on record as 25%. The “Toxicity: RI G1” value in data set [4] is recorded as 2 (18.2) n. (%). Moreover, in data set [4] (trombopenia grade 1), the “Toxicity: Thromb. G1” value is 1 (9.1) n. (%). Also, in data set [5], the “monitored cycles with recommendation to decrease the dose” value is on record as 6.9%, the “monitored cycles with recommendation to increase the prescribed dose” value is given as 17.2% and the “monitored cycles with recommendation to suspend/suppress the drug” value was 3.4%. Also, the “% patients, Group 3” value in data set [6] (setting [9]) was found to be 9.1%. For the same molecule, the “% patients, Group 2” value in data set [6] (Toxicities: No) is on record as 54.4%. Further, in data set [6], the “% patients, Group 4” value was found to be 9.1%.

For `CS(=O)(=O)CCNCc1ccc(-c2ccc3ncnc(Nc4ccc(OCc5cccc(F)c5)c(Cl)c4)c3c2)o1` [Lapatinib, lapatinib], in data set [3], the “Overall Survival, Median” value is reported as 46 Months and the “Progression-Free Survival, Median” value was 8 Months. In data set [2] (first monitored cycle), the “mean interpatient variability in dose-normalized plasma concentrations (CV)” value is reported as 60.7%. Further, the “mean interpatient variability in dose-normalized plasma concentrations (CV)” value in data set [2] (setting [7]) is listed as 56%. In addition, in data set [1], the “increase in AUC with high-fat meals” value was “more than 3 fold”; the “interpatient variability in exposure, AUC” value was 42–117%; the “interpatient variability in exposure, Ctrough” value is recorded as 55–97%; the “t1/2 in severe liver failure relative to normal liver function” value was 3 fold. Moreover, the “increase of mean AUC in patients with severe liver failure” value in data set [1] (vs normal liver function) is recorded as “more than 60%”. Also, in data set [4] (after performing TDM), the toxicities detected is 5 cases. Besides, in data set [4] (at start of treatment), the Patients with toxicity is recorded as 12 (75.0) n. (%). In data set [4] (first monitored cycle), this molecule came in with a toxicities detected of 25 cases. Also, in data set [4] (first vs last monitored cycle), the “reduction of toxicity events by TDM” value worked out at 80%. Further, in data set [4] (in vivo), the “Toxicity: Anemia G1” value is given as 3 (18.7) n. (%), the “Toxicity: Anemia G2” value is given as 2 (12.5) n. (%), the “Toxicity: Anemia G3” value is reported as 1 (6.2) n. (%) and the “Toxicity: Diarrhea G1” value was 2 (12.5) n. (%). Further, in data set [4] (in vivo), the “Toxicity: Diarrhea G2” value was 1 (6.2) n. (%), the “Toxicity: Diarrhea G3” value is recorded as 1 (6.2) n. (%), the “Toxicity: Mucositis G3” value was 1 (6.2) n. (%) and the “Toxicity: Pain” value is 2 (12.5) n. (%). Moreover, in data set [4] (in vivo), the “Toxicity: Skin rash G1” value is 1 (6.2) n. (%); the “Toxicity: Skin rash G3” value is given as 1 (6.2) n. (%); the “analytical parameters related to toxicity and defined toxicities, first vs last monitored cycle” value is on record as “no significant differences”; the “patients who developed toxicity at the start of treatment” value is given as 75%. Also, in data set [4] (neutropenia grade 3), the “Toxicity: Neutr. G3” value is 2 (12.5) n. (%). Further, in data set [4], the “Toxicity: RI G1” value was 6 (37.5) n. (%). Besides, the “Toxicity: RI G2” value in data set [4] (renal insufficiency grade 2) is 2 (12.5) n. (%). Besides, in data set [5], the “monitored cycles with recommendation to decrease the dose” value turned out to be 8.6%, the “monitored cycles with recommendation to increase the prescribed dose” value is 14.3% and the “monitored cycles with recommendation to suspend/suppress the drug” value is 8.6%. The “monitored cycles with recommendation to maintain the current dose” value in data set [5] (concentrations within therapeutic range) was determined as 68.6%. The “% patients, Group 1” value in data set [6] (Drug concentrations above target level: No, Toxicities: No) turned out to be 6.2%. Besides, the “% patients, Group 3” value in data set [6] (setting [9]) came out at 18.7%. In data set [6] (Toxicities: No), the “% patients, Group 2” value is given as 6.2%. For the same molecule, the “% patients, Group 4” value in data set [6] is on record as 69.5%.
